In patent US20040077674A1, “Mappicine analogs, intermediates in the synthesis of mappicine analogs and methods of synthesis of mappicine analogs” (priority 2002, published 2004):
Several values for one entry are separate records, joined by “and”; a condition that tells them apart may be missing. Equal values may be shown once. Read-outs that look alike come from different tables or passages of the source.

Columns and labels:
[1] = molecular target: T1, RNase H activity of HIV reverse transcriptase (Human immunodeficiency virus type 1 group M subtype B, UniProt P03366); assay: Fluorescence (FRET)-based RNase H assay of HIV reverse transcriptase; type: biochemical, HIV-1; settings: for remaining activity at 10 µM: 10 μM inhibitor concentration, activity in presence / in absence of analog x 100, read-out: Residual activity (%) RNase H; for IC50: in vitro, read-out: IC50 (μM) against HIV RNase H in vitro
T1 construct: 2.5 nM of the p51/p66 RT heterodimer in the assay; made in house

HIV-1 replication [2] = assay: HIV-1 replication in cultured cells (cell culture viral growth assay); type: cell-based
[3] = molecular target: T2, RNA-dependent DNA polymerase activity of HIV reverse transcriptase (Human immunodeficiency virus type 1 group M subtype B, UniProt P03366); assay: RNA-dependent DNA polymerase activity assay of HIV reverse transcriptase; type: biochemical, HIV-1; settings: 10 μM inhibitor concentration; activity in presence / in absence of analog x 100; read-out: Residual activity (%) Polymerase
T2 construct: made in house
Method in brief: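 Single-concentration test of mappicine analogs at 10 μM final against the RNA-dependent DNA polymerase activity of HIV RT. Value is % residual activity: polymerase activity with analog divided by activity without analog, ×100.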

[4] = molecular target: T1, RNase H activity of HIV reverse transcriptase; settings: read-out: IC50 of RNase H inhibition; literature (Borkow et al. 1997); cited from earlier work
HIV-1 replication [5] = settings: published RNase H inhibitors; cited from earlier work
cells [6] = settings: cited from earlier work
cells [7] = settings: cited from earlier work; remark: listed apart in the source
[8] = test system: mutant HIV-1 strain with K103N+Y181C in the viral reverse transcriptase; assay: Replication of NNRTI-resistant mutant HIV-1 strain K103N+Y181C in cultured cells; type: cell-based; settings: K103N+Y181C mutant HIV-1; read-out: EC50 of inhibition of replication of resistant virus strain
[9] = test system: mutant HIV-1 strain with V106A+Y181C in the viral reverse transcriptase; assay: Replication of NNRTI-resistant mutant HIV-1 strain V106A+Y181C in cultured cells; type: cell-based; settings: V106A+Y181C mutant HIV-1; read-out: EC50 of inhibition of replication of resistant virus strain
[10] = Human immunodeficiency virus 1, cell culture viral growth assays, read-out: EC50 (μM) against HIV-1 replication

Compound | remaining activity at 10 µM [1] [%] | IC50 [1] | remaining activity at 10 µM [3] [%] | antiviral activity against HIV-1 replication in cultured cells (in words) (HIV-1 replication [5]) | further results
CCC(O)c1cc2n(c(=O)c1C)Cc1c-2nc2ccc(NC(=O)OC(C)(C)C)cc2c1[Si](C)(C)C (stereo not shown) [5 (AG 2M), 2-tert-Butyloxycarbonylamino-7-(1-hydroxypropyl)-8-methyl-12-trimethylsilanyl-11H-indolizino [1,2-b]quinolin-9-one] | 47 | < 10 µM and 8 µM | 80 | – | EC50 (HIV-1 replication [2]; [10]): ~5 µM
CCc1c2c(nc3ccc(NC(=O)OC(C)(C)C)cc13)-c1cc(C(O)CC)c(C)c(=O)n1C2 (stereo not shown) [5 (AG 5M), 2-tert-Butyloxycarbonylamino-12-ethyl-7-(1-hydroxypropyl)-8-methyl-11H-indolizino[1,2-b]quinolin-9-one] | 68 | – | 87 | – | –
CCc1c2c(nc3ccc(N)cc13)-c1cc(C(O)CC)c(C)c(=O)n1C2 (stereo not shown) [5 (AG 6M), 2-Amino-12-ethyl-7-(1-hydroxypropyl)-8-methyl-1 1H-indolizinol[1,2-b]quinolin-9-one] | 57 | < 10 µM and 10 µM | 76 | – | EC50 (HIV-1 replication [2]; [10]): ~5 µM
CCc1c2c(nc3ccc(O)cc13)-c1cc(C(O)CC)c(C)c(=O)n1C2 (stereo not shown) [5 (AG 8M), 12-Ethyl-2-hydroxy-7-(1-hydroxypropyl)-8-methyl-11H-indolizino[1,2-b]quinolin-9-one] | 87 | – | 69 | – | –
CC(C)(C)c1ccc(C(=O)NN=Cc2c(O)ccc3ccccc23)cc1 [BBNH, N-4-(t-butylbenzoyl)-2-hydroxy-1-naphthaldehyde hydrazone] | – | 1.8 µM | – | demonstrated antiviral activity against HIV-1 replication in cultured cells | IC50 [4]: ~2 µM; toxicity to cells (in words) (cells [6]): highly toxic to cells
O=C(O)C(=O)CC(=O)c1ccc(NC(=O)c2ccccc2)s1 [BTOBA, 4-[5-(benzoylamino)thien-2-yl]-2,4-dioxobutanoic acid] | – | – | – | cannot inhibit HIV-1 replication in cultured cells | ability to penetrate cells (in words) (cells [7]): Neither CPHM nor BTOBA are able to penetrate cells
O=C(O)C(=NNc1ccc(Cl)cc1)C(=O)O [CPHM, 2-[(4-chlorophenyl)-hydrazono]-malonic acid] | – | – | – | cannot inhibit HIV-1 replication in cultured cells | ability to penetrate cells (in words) (cells [7]): Neither CPHM nor BTOBA are able to penetrate cells
CCCc1c2c(nc3ccc(Cl)cc13)-c1cc(C(O)CCC3CCCCC3)c(C)c(=O)n1C2 (stereo not shown) [Compound 7.5.6] | – | – | – | – | % inhibition of RNase H at 20 μM ([1]; 20 μM inhibitor concentration): 100%; inhibitory activity against HIV-1 RNase H (in words) ([1]; dose-response curves FIG. 13, 10 μM or 20 μM screens): possess inhibitory activity against HIV-1 RNase H; EC50 [8]: 3.5 µM; EC50 (HIV-1 replication [2]; wild-type HIV-1 in cultured cells, read-out: EC50 of inhibition of replication of wild-type HIV-1): ~3 µM; EC50 [9]: 4.2 µM
